Laboratory results as given in patent US20160046592A1, “PHARMACEUTICAL COMPOSITION FOR THE TREATMENT OF DIABETES” (Ajinomoto Co., Inc., priority 2013, published 2016).
Counter-ions that a name gives are not always drawn.

target: T1, human GYS1 (glycogen synthase) (Homo sapiens, UniProt P13807); experiment: Measurement of glycogen synthase activity; assay type: biochemical; conditions: concentration causing 50% increase in relative activity; 100% = compound of Example 1 of WO/2011/058154 at 10 μM; 10 mM Glucose-6-phosphate; 37° C. for 25 minutes (Examples 1 to 61 and 67 to 82) or 20 minutes (Examples 62 to 66); absorbance at 340 nm
T1 construct: made in house; host or cells: HEK293T
T1 sequence (P13807 1-737): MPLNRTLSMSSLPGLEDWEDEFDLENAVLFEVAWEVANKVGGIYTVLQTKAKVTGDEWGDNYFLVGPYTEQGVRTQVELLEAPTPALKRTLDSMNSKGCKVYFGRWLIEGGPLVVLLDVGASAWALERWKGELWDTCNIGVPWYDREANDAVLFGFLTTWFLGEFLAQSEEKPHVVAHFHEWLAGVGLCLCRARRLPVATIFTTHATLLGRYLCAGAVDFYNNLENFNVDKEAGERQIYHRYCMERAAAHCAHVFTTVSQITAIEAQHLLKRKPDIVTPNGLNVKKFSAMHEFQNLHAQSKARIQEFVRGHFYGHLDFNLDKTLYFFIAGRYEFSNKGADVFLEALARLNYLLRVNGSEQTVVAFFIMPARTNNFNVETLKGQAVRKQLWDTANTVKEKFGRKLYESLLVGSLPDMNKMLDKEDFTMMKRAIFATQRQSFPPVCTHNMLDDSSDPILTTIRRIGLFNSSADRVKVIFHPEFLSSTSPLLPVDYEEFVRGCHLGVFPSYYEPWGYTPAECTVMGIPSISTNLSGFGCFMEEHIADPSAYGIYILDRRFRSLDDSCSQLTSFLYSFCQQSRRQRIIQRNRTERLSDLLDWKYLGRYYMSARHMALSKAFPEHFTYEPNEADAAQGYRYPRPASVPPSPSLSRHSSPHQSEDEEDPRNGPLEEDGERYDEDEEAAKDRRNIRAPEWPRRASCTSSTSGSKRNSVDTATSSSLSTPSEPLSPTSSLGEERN
Procedure: A human GYS1 expression plasmid (pCDNA3.1(+)-hGYS1) was constructed by the following method. By using a human skeletal muscle cDNA of Human MTC Panel I (Takara Bio Inc., 636742) as a template, a human GYS1 gene was amplified by a PCR method using cloning primers (Forward Primer: ATGCCTTTAAACCGCAC, Reverse Primer: TTAGTTACGCTCCTCGC). By using the amplified human GYS1 sequence as a template, restriction enzyme sequences were added by a PCR method using sub-cloning primers (Forward Primer: […], and Reverse Primer: […]), and then the human GYS1 gene was introduced between Xho I and Xba I sites of pCDNA3.1(+) (Invitrogen, V790-20).
Glycogen synthase was prepared by the following method. Human kidney-derived HEK293T cells were seeded in a dish (Thermo Fisher Scientific K.K., 168381) by using a 10% FBS-containing DMEM (Nacalai Tesque, Inc., 0845874) medium, and cultured overnight. Then, by using Lipofectamine LTX (Invitrogen, 15338-100), the cells were transfected with the human GYS1 expression vector according to the attached manual. After culturing under conditions of 37° C. and 5% CO2 for 2 days, the resultant was lysed in a lysis buffer (50 mM Tris-HCl (pH 8.0), 10 mM EDTA, 2 mM EGTA, 100 mM NaF, 1 mM PMSF, 1 mM DTT, and 1× Complete (Roche, 1873580)), homogenized, and then centrifuged at 16000×g at 4° C. for 15 minutes. The precipitated fraction re-dissolved by adding the lysis buffer was used as a glycogen synthase for evaluation.
The glycogen synthase activity was measured by the following method. To a polystyrene 96-well plate, solutions each containing 30 mM glycylglycine (pH 7.3), 40 mM KCl, 20 mM MgCl2, 9.2% DMSO containing one of the test compounds at one of various concentrations, and 10 mM Glucose-6-phosphate (Sigma-Aldrich, G7879) were added at 12 μL/well.
Next, a substrate solution containing 30 mM glycylglycine (pH 7.3), 4.3 mg/mL glycogen (Sigma-Aldrich, G8876), 21.6 mM UDP-glucose (Sigma-Aldrich, U4625), 21.6 mM phosphoenolpyruvic acid (Sigma-Aldrich, P0564), and 4.05 mM NADH (Sigma-Aldrich, N8129) was added at 18 μL/well.
Moreover, an enzyme solution containing 50 mM Tris-HCl (pH 8.0), 27 mM DTT (NACALAI TESQUE, INC., 14128-04), 0.2 mg/mL bovine serum albumin, 0.17 mg/mL glycogen synthase, and 1.5 μL pyruvate kinase/lactate dehydrogenase solution (Sigma-Aldrich, P0294) was added at 18 μL/well to prepare reaction solutions. After the reaction solutions were incubated (at 37° C. for 25 minutes for Examples 1 to 61 and 67 to 82 or at 37° C. for 20 minutes for Examples 62 to 66), the absorbance at 340 nm was measured by using Benchmark Plus (Bio-Rad Laboratories, Inc.).
The activity of each test compound was calculated by the following method. The absorbance at 340 nm of the reaction solution containing the compound and DMSO was subtracted from the absorbance at 340 nm of a reaction solution not containing the compound but containing only DMSO to calculate the change (ΔA340) in absorbance. The relative activity (%) of the test compound at each of the various concentrations was calculated, where the ΔA340 of a reaction solution containing the compound of Example 1 of WO/2011/058154 at a final concentration of 10 μM was taken as 100%. EC50 representing the concentration of the compound at which an increase in the relative activity by 50% was caused was calculated using XLfit (idbs).

SMILES | EC50 [nM]
CSc1cc(F)c(F)cc1-c1ccc(OCc2cccc(C(=O)N(CC(=O)O)Cc3cccnc3)c2)cc1 [Example 39, 2-[[3-[[4-(4,5-Difluoro-2-methylsulfanyl-phenyl)phenoxy]methyl]benzoyl]-(3-pyridylmethyl)amino]acetic Acid Trifluoroacetate] | 21
CSc1cc(F)c(F)cc1-c1ccc(OCc2cccc(C(=O)N(CCNC(C)=O)CC(=O)O)c2)cc1 [Example 44, 2-[2-Acetamidoethyl-[3-[[4-(4,5-difluoro-2-methylsulfanyl-phenyl)phenoxy]methyl]benzoyl]amino]acetic Acid] | 25
COC(C)CN(CC(=O)O)C(=O)c1cccc(COc2ccc(-c3cc(F)c(F)cc3SC)cc2)c1 (stereo not shown) [Example 45, 2-[[3-[[4-(4,5-Difluoro-2-methylsulfanyl-phenyl)phenoxy]methyl]benzoyl]-(2-methoxypropyl)amino]acetic Acid] | 7.7
CSc1cc(F)c(F)cc1-c1ccc(OCc2cccc(C(=O)N(CC(=O)O)CC3CCS(=O)(=O)C3)c2)cc1 (stereo not shown) [Example 46, 2-[[3-[[4-(4,5-Difluoro-2-methylsulfanyl-phenyl)phenoxy]methyl]benzoyl]-[(1,1-dioxothiolan-3-yl)methyl]amino]acetic Acid] | 25
CSc1cc(F)c(F)cc1-c1ccc(OCc2cccc(C(=O)N(CC(=O)O)[C@H]3CC[C@@H](N)CC3)c2)cc1 [Example 48, 2-[(4-Aminocyclohexyl)-[3-[[4-(4,5-difluoro-2-methylsulfanyl-phenyl)phenoxy]methyl]benzoyl]amino]acetic Acid Trifluoroacetate] | 13
CSc1cc(F)c(F)cc1-c1ccc(OCc2cccc(C(=O)N(CC(=O)O)CC3CCCNC3)c2)cc1 (stereo not shown) [Example 50, 2-[[3-[[4-(4,5-Difluoro-2-methylsulfanyl-phenyl)phenoxy]methyl]benzoyl]-(3-piperidylmethyl)amino]acetic Acid Trifluoroacetate] | 6.3
CSc1cc(F)c(F)cc1-c1ccc(OCc2cccc(C(=O)N(CC(=O)O)Cc3cocn3)c2)cc1 [Example 52, 2-[[3-[[4-(4,5-Difluoro-2-methylsulfanyl-phenyl)phenoxy]methyl]benzoyl]-(oxazol-4-ylmethyl)amino]acetic Acid] | 4.4
CSc1cc(F)c(F)cc1-c1ccc(OCc2cccc(C(=O)N(CC(=O)O)Cc3ccncn3)c2)cc1 [Example 53, 2-[[3-[[4-(4,5-Difluoro-2-methylsulfanyl-phenyl)phenoxy]methyl]benzoyl]-(pyrimidin-4-ylmethyl)amino]acetic Acid] | 7.9
CSc1cc(F)c(F)cc1-c1ccc(OCc2cccc(C(=O)N(CC(=O)O)Cc3ccn[nH]3)c2)cc1 [Example 54, 2-[[3-[[4-(4,5-Difluoro-2-methylsulfanyl-phenyl)phenoxy]methyl]benzoyl]-(1H-pyrazol-5-ylmethyl)amino]acetic Acid] | 15
CSc1cc(F)c(F)cc1-c1ccc(OCc2cccc(C(=O)N(CC(=O)O)Cc3ccnn3C)c2)cc1 [Example 55, 2-[[3-[[4-(4,5-Difluoro-2-methylsulfanyl-phenyl)phenoxy]methyl]benzoyl]-[(2-methylpyrazol-3-yl)methyl]amino]acetic Acid] | 22

Further compounds by falling EC50, results first:

EC50 [nM] | SMILES
24 | CSc1cc(F)c(F)cc1-c1ccc(OCc2cccc(C(=O)N(CCN3CCCC3)CC(=O)O)c2)cc1 [Example 40, 2-[[3-[[4-(4,5-Difluoro-2-methylsulfanyl-phenyl)phenoxy]methyl]benzoyl]-(2-pyrrolidin-1-ylethyl)amino]acetic Acid Trifluoroacetate]
23 | CSc1cc(F)c(F)cc1-c1ccc(OCc2cccc(C(=O)N(CC(=O)O)CC3CCN(C)CC3)c2)cc1 [Example 37, 2-[[3-[[4-(4,5-Difluoro-2-methylsulfanyl-phenyl)phenoxy]methyl]benzoyl]-[(1-methyl-4-piperidyl)methyl]amino]acetic Acid Trifluoroacetate]
21 | CSc1cc(F)c(F)cc1-c1ccc(OCc2cccc(C(=O)N(CCN3CCS(=O)(=O)CC3)CC(=O)O)c2)cc1 [Example 41, 2-[[3-[[4-(4,5-Difluoro-2-methylsulfanyl-phenyl)phenoxy]methyl]benzoyl]-[2-(1,1-dioxo-1,4-thiazinan-4-yl)ethyl]amino]acetic Acid Trifluoroacetate]
19 | CCN1CCC(CN(CC(=O)O)C(=O)c2cccc(COc3ccc(-c4cc(F)c(F)cc4SC)cc3)c2)CC1 [Example 38, 2-[[3-[[4-(4,5-Difluoro-2-methylsulfanyl-phenyl)phenoxy]methyl]benzoyl]-[(1-ethyl-4-piperidyl)methyl]amino]acetic Acid Trifluoroacetate]
19 | CSc1cc(F)c(F)cc1-c1ccc(OCc2cccc(C(=O)N(CC(=O)O)Cc3ncco3)c2)cc1 [Example 42, 2-[[3-[[4-(4,5-Difluoro-2-methylsulfanyl-phenyl)phenoxy]methyl]benzoyl]-(oxazol-2-ylmethyl)amino]acetic Acid]
19 | CCNCCN(CC(=O)O)C(=O)c1cccc(COc2ccc(-c3cc(F)c(F)cc3SC)cc2)c1 [Example 43, 2-[[3-[[4-(4,5-Difluoro-2-methylsulfanyl-phenyl)phenoxy]methyl]benzoyl]-[2-(ethylamino)ethyl]amino]acetic Acid Trifluoroacetate]
18 | CSc1cc(F)c(F)cc1-c1ccc(OCc2cccc(C(=O)N(CC(=O)O)Cc3cnco3)c2)cc1 [Example 47, 2-[[3-[[4-(4,5-Difluoro-2-methylsulfanyl-phenyl)phenoxy]methyl]benzoyl]-(oxazol-5-ylmethyl)amino]acetic Acid]
9.5 | COCCOCCN(CC(=O)O)C(=O)c1cccc(COc2ccc(-c3cc(F)c(F)cc3SC)cc2)c1 [Example 49, 2-[[3-[[4-(4,5-Difluoro-2-methylsulfanyl-phenyl)phenoxy]methyl]benzoyl]-[2-(2-methoxyethoxy)ethyl]amino]acetic Acid]
5.2 | CSc1cc(F)c(F)cc1-c1ccc(OCc2cccc(C(=O)N(CCS(N)(=O)=O)CC(=O)O)c2)cc1 [Example 51, 2-[[3-[[4-(4,5-Difluoro-2-methylsulfanyl-phenyl)phenoxy]methyl]benzoyl]-(2-sulfamoylethyl)amino]acetic Acid]
